Source: patent US20060287248A1, “Asymmetric dosing methods” (Schering Corporation, priority 2005, published 2006)

Key:
melanoma A375 tumors = melanoma A375 tumors implanted into the left ventricle of the heart; cited from earlier work
HCV = test: Viral load in HCV patients on regimens of compound of Formula Ia (reverse transcriptase PCR, FIG. 1); format: in vivo, human; conditions: Patients with HCV, 200 mg BID, 400 mg BID, 400 mg TID
From the text: FIG. 1 is a graph of mean viral load measured over time with administration of various doses and regimens of compound of Formula Ia; and
Studies of viral activity in HCV infected patients indicate that viral activity and resulting viral load are influenced by the circadian rhythm of the patient. […] Thus, in one aspect of the invention, the one or more discrete dosages are adjusted in amount to provide a highest dose or doses at a time or times corresponding to the time interval when hepatitis-C virus replication is highest.
Patients with HCV were put on various treatment regimens including 200 mg. BID, 400 mg. BID, and 400 mg. TID of a compound of Formula Ia, to determine efficacy of the regimens in reducing viral load. Blood samples were taken at predose and at 0.25, 0.5, 0.75, 1, 1.5, 2, 3, 4, 5, 6, 8, 10, 12, 18, 24, 36, 48, 72, 144 hr post dose using reverse transcriptase PCR methods.

[1] = Serum levels of compound Ia on day 14 in healthy subjects, BID vs TID regimen (FIG. 2); format: in vivo, human; conditions: 400 mg TID; for serum/plasma level before the morning dose (time zero), 8 hours after the previous dose: healthy subjects, compared with 8 hours after the morning dose
Description: Healthy subjects were put on one of two regimens of 400 mg BID or 400 mg. TID of a compound of Formula Ia. Blood samples were taken on day 14 immediately prior to the morning dose (time zero) and at 12 hours post-dose (for the BID regimen) or 8 hours post-dose (for the TID regimen).

Structure (SMILES)	distant bone metastasis to the femur and tibia (melanoma A375 tumors)	pattern of viral load decline over time (HCV)	pattern of viral load decline over time (HCV; listed as Formula la)	viral load as measured in serum (HCV; predose to 144 hr post dose)	plasma level 8 hours after the morning dose ([1]; compared with level before the morning dose)	serum/plasma level before the morning dose (time zero), 8 hours after the previous dose [1]	serum/plasma level before the morning dose (time zero), 8 hours after the previous dose ([1]; listed as formula la)
CN(C)C(=O)[C@H](Cc1ccccc1)NC(=O)[C@H]1O[C@@H]1C(=O)NCCc1ccccn1 [CLIK-148]	reduced distant bone metastasis	–	–	–	–	–	–
CC(C)(C)NC(=O)N[C@H](C(=O)N1C[C@H]2[C@@H]([C@H]1C(=O)NC(CC1CCC1)C(=O)C(N)=O)C2(C)C)C(C)(C)C (stereo partly drawn) [Formula Ia, (1R,5S)-N-[3-Amino-1-(Cyclobutylmethyl)-2,3-Dioxopropyl]-3-[2(S)-[[[(1,1-Dimethylethyl)Amino]Carbonyl]Amino]-3,3-Dimethyl-1-Oxobutyl]-6,6-Dimethyl-3-Azabicyclo[3.1.0]Hexan-2(S)-Carboxamide]	–	exhibited cyclical fluctuations corresponding to the patients' sleep/wake cycles	the decline in viral load is cyclical	declined with all regimens	much lower	significantly higher at time zero	highest in the morning
